According to patent US7786107B2, “Modulators of muscarinic receptors” (Vertex Pharmaceuticals Incorporated, priority 2006, dated 2010):
pEC50: −log10 of the molar value.

Columns and labels:
M4 muscarinic receptor = target: T1, M4 muscarinic receptor (Homo sapiens, UniProt P08173); test: Functional mobilization of intracellular calcium (FLIPR) in CHO cells expressing M4; type: cell-based; conditions: for pEC50: CHO cells expressing M4, calcium mobilization; for Emax: CHO, 100% efficacy is the maximum response obtained with the Carbachol control
T1 construct: expressed in transfected cells; host or cells: CHO
T1 sequence (P08173 1-479): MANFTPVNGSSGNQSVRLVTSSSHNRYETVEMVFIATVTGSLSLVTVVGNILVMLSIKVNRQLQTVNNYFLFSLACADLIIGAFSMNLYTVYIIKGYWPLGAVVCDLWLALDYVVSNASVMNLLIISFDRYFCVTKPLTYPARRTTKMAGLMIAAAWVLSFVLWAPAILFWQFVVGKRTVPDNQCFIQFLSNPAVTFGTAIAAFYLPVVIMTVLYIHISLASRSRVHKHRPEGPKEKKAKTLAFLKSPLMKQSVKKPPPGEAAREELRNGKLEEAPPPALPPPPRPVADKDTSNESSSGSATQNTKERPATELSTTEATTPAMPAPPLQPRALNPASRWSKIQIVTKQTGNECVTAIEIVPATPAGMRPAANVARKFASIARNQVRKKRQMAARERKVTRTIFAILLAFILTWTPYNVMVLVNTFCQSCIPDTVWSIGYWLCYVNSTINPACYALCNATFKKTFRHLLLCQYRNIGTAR
Method: (§1) Functional Mobilization of Intracellular Calcium to Determine Muscarinic Receptor Activity:
(§2) CHO cells expressing muscarinic receptors (M1 to M5) are grown as monolayers in tissue culture flasks at 37° C. in a humidified atmosphere containing 5% CO2 and passaged every 3-5 days. The growth media is Dulbecco's modified eagles medium (DMEM, Gibco Cat#12430-054), containing 25 mM Hepes and supplemented with Fetal Bovine Serum (Hyclone, Cat#SH30071.03), 0.1 mM of MEM non-essential amino acids (GIBCO, Cat#11140-050), 1 mM MEM Sodium Pyruvate (GIBCO Cat#11360-070) and 100 units/ml of Penicillin G and 100 μg/ml of Streptomycin (GIBCO Cat#15140-122). The recombinant muscarinic receptor cell lines are grown under antibiotic pressure with media containing 25 μg/ml zeocin and 500 μg/ml G418 (MI-CHO), 4 μg/ml puromycin, 50 μg/ml zeocin and 2.5 μg/ml blasticidin (M2 and M4-CHO) or 50 μg/ml zeocin and 4 μg/ml puromycin (M3 and M5-CHO).
(§3) Cells are harvested at 80-90% confluence using Versene (GIBCO Cat#15040-066), collected by centrifugation and seeded 18-24 hours prior to running the calcium assay at a density of 5,000-10,000 cells/well in […], clear-bottomed 384-well plates (BD Biocoat, poly-D-lysine, Cat#356663). The day of the experiment, the cells are washed with a plate washer (Bioteck Instruments, ELX 405) using bath 1 buffer (140-mM NaCl, 4.5-mM KCl, 2-mM CaCl2, 1-mM MgCl2, 10-mM Hepes-Na, 10-mM Glucose, pH 7.4, with NaOH) containing 1 mM Probenecid. Next, the calcium dye Fluo-3 (25 μl well of Fluo-3 AM at 4 μM, Molecular Probes F-1241, in Bath 1 buffer containing 1 mM Probenecid) is added to the 25 μl of Bath 1 remaining in each well after the plate wash and the dye is loaded at 37° C. in the tissue culture incubator for 60-90 min. The fluorescent dye is removed using the plate washer with Bath 1 containing 1 mM Probenecid, leaving 25 μl/well of this solution after the wash. Alternatively, cells can be loaded with the calcium indicator from Molecular Devices (Calcium 3 Assay Reagents, Cat #R7181) adding 5 μl of a 5× solution dye in Bath 1 containing 1 mM Probenecid (10 ml per dye flask cat#R7182 to generate a solution 20×) to 20 μl of the same buffer. After loading for 60 min, the experiment can be run without having to remove the dye.
(§4) Compounds are prepared at a 2× fold concentration in a 96-well plate (round bottom, Costar Corning cat#3656), by reconstituting the pre-spotted compounds in bath 1 containing 1 mM probenecid. The final concentration DMSO is 0.5%, and the amount of DMSO is normalized across the assay plate. To determine an agonist action of the compounds on muscarinic receptors, the reconstituted compounds are added (25 μl compound/well) to the cell assay plate (containing 25 μl/well) using the multi-channel robotic system of the FLIPR 3 Instrument (Molecular Devices, Sunnyvale, Calif.). To determine a functional inhibitory action of the compounds on muscarinic receptors, the reconstituted compounds are added (25 μl compound/well) to the assay plate and pre-incubated for 15 min prior to adding 25 μl of Carbachol at 3× the EC80 for each muscarinic subtype. Alternatively, the compounds can be co-applied simultaneously with the agonist. In both assay modes, the fluorescence is recorded for 60 sec (excitation wavelength is […] and emission wavelength 540 nm) using the FLIPR 3 instrument.
(§5) The potency, efficacy and selectivity of the muscarinic compounds were evaluated by screening the compound activity across the whole family (M1 to M5 cells). Compounds were also screened for activity on other proteins such as other GPCRs and ion channels to determine selectivity on M4 receptors.
(§6) Examples of activities and efficacies of the muscarinic compounds of formulae (I, I-A, and I-B) on modulating M1 and M4 receptors are shown below in Table 4. […]

M1 muscarinic receptor = target: T2, M1 muscarinic receptor (Homo sapiens, UniProt P11229); test: Functional mobilization of intracellular calcium (FLIPR) in CHO cells expressing M1; type: cell-based; conditions: for pEC50: CHO cells expressing M1, calcium mobilization; for Emax: CHO, 100% efficacy is the maximum response obtained with the Carbachol control
T2 construct: expressed in transfected cells; host or cells: CHO
T2 sequence (P11229 1-460): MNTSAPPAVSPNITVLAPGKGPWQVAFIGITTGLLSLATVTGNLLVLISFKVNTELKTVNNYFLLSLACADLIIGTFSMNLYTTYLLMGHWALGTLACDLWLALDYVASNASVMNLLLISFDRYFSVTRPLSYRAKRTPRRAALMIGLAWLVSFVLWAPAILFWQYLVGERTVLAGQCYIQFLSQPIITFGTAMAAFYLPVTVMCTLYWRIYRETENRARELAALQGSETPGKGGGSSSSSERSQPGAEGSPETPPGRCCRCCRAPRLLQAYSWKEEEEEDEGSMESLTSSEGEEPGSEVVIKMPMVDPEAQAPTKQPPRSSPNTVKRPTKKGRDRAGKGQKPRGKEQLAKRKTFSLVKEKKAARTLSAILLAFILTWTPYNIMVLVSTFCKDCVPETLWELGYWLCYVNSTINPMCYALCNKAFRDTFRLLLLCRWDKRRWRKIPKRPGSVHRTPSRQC
Method: as §1, §2, §3, §4, §5, §6

SMILES | pEC50 (M4 muscarinic receptor) | Emax (M4 muscarinic receptor) | pEC50 (M1 muscarinic receptor) | Emax (M1 muscarinic receptor)
O=C1CCC2(CCN(C3C[C@@H]4CC[C@@H]3C4)CC2)c2ccccc2N1 (some centres unmarked) [Compound 1] | > 5.70 | 25 to 100% | > 5.70 | > 100%
NC(=O)N1CCCC2(CCN(CC3CC4C=CC3C4)CC2)c2ccccc21 (centres unmarked) [Compound 2] | > 5.70 | 25 to 100% | 5.00 to 5.70 | < 25%
CN1C(=O)CCC2(CCN(CCC(C)(C)C)CC2)c2ccccc21 [Compound 3] | > 5.70 | 25 to 100% | 5.00 to 5.70 | 25 to 100%
CCOC(=O)N1C2CCC1CC(N1CCC3(CCC(=O)Nc4ccccc43)CC1)C2 (centres unmarked) [Compound 4] | > 5.70 | 25 to 100% | > 5.70 | 25 to 100%
O=C1CCC2(CCN(CC3CC4C=CC3C4)CC2)c2ccccc2N1 (centres unmarked) [Compound 5] | > 5.70 | 25 to 100% | 5.00 to 5.70 | 25 to 100%
NC(=O)N1CCCC2(CCN(C3CCCCCC3)CC2)c2ccccc21 [Compound 6] | < 5.00 | < 25% | < 5.00 | < 25%
CC(=O)N1CCCC2(CCN(CC3CCCCC3)CC2)c2ccccc21 [Compound 7] | 5.00 to 5.70 | < 25% | < 5.00 | < 25%
CCOC(=O)N1CCC(N2CCC3(CCCN(C(N)=O)c4ccccc43)CC2)CC1 [Compound 8] | 5.00 to 5.70 | 25 to 100% | > 5.70 | 25 to 100%
CC(=O)N1CCCC2(CCN(CC3CC4C=CC3C4)CC2)c2ccccc21 (centres unmarked) [Compound 9] | > 5.70 | 25 to 100% | < 5.00 | < 25%
CCOC(=O)N1C2CCC1CC(N1CCC3(CCCN(C(=O)N(C)C)c4ccccc43)CC1)C2 (centres unmarked) [Compound 10] | 5.00 to 5.70 | < 25% | < 5.00 | < 25%
CN(C)C(=O)N1CCCC2(CCN(C3CCCCCC3)CC2)c2ccccc21 [Compound 11] | < 5.00 | < 25% | < 5.00 | < 25%
CN1C(=O)CCC2(CCN(C3CCCCCC3)CC2)c2ccccc21 [Compound 12] | > 5.70 | 25 to 100% | 5.00 to 5.70 | 25 to 100%
CC(C)(C)CCN1CCC2(CCCN(C(N)=O)c3ccccc32)CC1 [Compound 13] | > 5.70 | 25 to 100% | 5.00 to 5.70 | 25 to 100%
CCOC(=O)N1CCC(N2CCC3(CCCN(C(C)=O)c4ccccc43)CC2)CC1 [Compound 14] | > 5.70 | 25 to 100% | > 5.70 | 25 to 100%
CN(C)C(=O)N1CCCC2(CCN(CC3CC4C=CC3C4)CC2)c2ccccc21 (centres unmarked) [Compound 15] | > 5.70 | 25 to 100% | < 5.00 | < 25%
NC(=O)N1CCCC2(CCN(C3CC4CCC(C4)C3)CC2)c2ccccc21 (centres unmarked) [Compound 16] | > 5.70 | 25 to 100% | 5.00 to 5.70 | 25 to 100%
CC(=O)N1CCCC2(CCN(C3C[C@@H]4CC[C@@H]3C4)CC2)c2ccccc21 (some centres unmarked) [Compound 17] | < 5.00 | < 25% | < 5.00 | < 25%
CCOC(=O)N1CCC(N2CCC3(CCC(=O)Nc4ccccc43)CC2)CC1 [Compound 18] | > 5.70 | 25 to 100% | > 5.70 | 25 to 100%
CN1C(=O)CCC2(CCN(C3CC4CCC(C4)C3)CC2)c2ccccc21 (centres unmarked) [Compound 19, 1′-(bicyclo[3.2.1.]octan-3-yl)-1-methyl-3,4-dihydrospiro[benzo[b]azepine-5,4′-piperidin]-2(1H)-one] | > 5.70 | 25 to 100% | > 5.70 | 25 to 100%
NC(=O)N1CCCC2(CCN(CC3CCCCC3)CC2)c2ccccc21 [Compound 20] | 5.00 to 5.70 | < 25% | < 5.00 | < 25%
CCOC(=O)N1CCC(N2CCC3(CCC(=O)N(C)c4ccccc43)CC2)CC1 [Compound 21] | 5.00 to 5.70 | 25 to 100% | 5.00 to 5.70 | 25 to 100%
CCOC(=O)N1C2CCC1CC(N1CCC3(CCCN(C(N)=O)c4ccccc43)CC1)C2 (centres unmarked) [Compound 22] | > 5.70 | 25 to 100% | > 5.70 | 25 to 100%
CCOC(=O)N1CCC(N2CCC3(CCCN(C(=O)N(C)C)c4ccccc43)CC2)CC1 [Compound 23] | > 5.70 | 25 to 100% | 5.00 to 5.70 | 25 to 100%
O=C1CCC2(CCN(C3CCCCCC3)CC2)c2ccccc2N1 [Compound 24, 1′-cycloheptyl-3,4-dihydrospiro[benzo[b]azepine-5,4′-piperidin]-2(1H)-one] | > 5.70 | 25 to 100% | > 5.70 | 25 to 100%
CN(C)C(=O)N1CCCC2(CCN(C3CC4CCC(C4)C3)CC2)c2ccccc21 (centres unmarked) [Compound 25] | > 5.70 | 25 to 100% | < 5.00 | < 25%
NC(=O)N1CCCC2(CCN(C3C[C@@H]4CC[C@@H]3C4)CC2)c2ccccc21 (some centres unmarked) [Compound 26] | < 5.00 | < 25% | < 5.00 | < 25%
CN(C)C(=O)N1CCCC2(CCN(CC3CCCCC3)CC2)c2ccccc21 [Compound 27] | < 5.00 | < 25% | < 5.00 | < 25%
CCOC(=O)N1C2CCC1CC(N1CCC3(CCCN(C(C)=O)c4ccccc43)CC1)C2 (centres unmarked) [Compound 28] | > 5.70 | 25 to 100% | > 5.70 | 25 to 100%
O=C1CCC2(CCN(C3CC4CCC(C4)C3)CC2)c2ccccc2N1 (centres unmarked) [Compound 29] | > 5.70 | 25 to 100% | > 5.70 | 25 to 100%
